Laboratory results reported in patent US20250213561A1, “SELECTIVE HYPOTHALAMUS PERMEABLE HDAC6 INHIBITORS FOR TREATMENT OF LEPTIN-RESISTANT OBESITY” (The Children’s Medical Center Corporation, priority 2022, published 2025).

What was measured:
[1] = test system: HDAC6; experiment: Ac-tubulin immunoblotting in HEK293 cells; type: cell-based
[2] = test system: DIO mice; experiment: Chronic treatment of DIO mice (body weight, food intake, DEXA, glucose homeostasis); type: in vivo; conditions: for hepatic steatosis (H&E liver): 3 weeks; for food intake: 3 weeks treatment; for glucose tolerance test (GTT): after 1 week; for HOMA-IR insulin resistance / serum insulin levels / serum leptin levels: after 3 weeks; for food intake and total body fat mass (summary): high fat diet induced mice
Protocol: DIO mice were treated with ACY775 (10 mg/kg/day, i.p.) for 3 weeks. Daily body weight (g) of DIO mice treated with vehicle (n=17) or ACY775 (n=17) during 3 weeks of treatment was determined. Daily food intake (g) during 3 weeks of vehicle or ACY775 treatment was assessed. 24 hours' food intake per mouse during the first week of vehicle or ACY775 treatment was determined. Serum leptin (ng/ml) levels after 3 weeks of vehicle (n=24) or ACY775 (n=24) treatment was assessed. Lean mass (g), fat mass (g) and fat percentage (%) after 3 weeks of vehicle (n=17) or ACY775 (n=17) treatment measured by Dual-energy X-ray absorptiometry (DEXA) scan. DEXA scans were performed in two different cohorts. Glucose tolerance test (GTT) after 1 week of vehicle (n=33) or ACY775 (n=26) treated DIO mice was assessed. Area of curve (AOC) analysis for GTT was performed. Blood glucose (mg/dl) levels after 1 week of vehicle (n=17) or ACY775 (n=16) were assessed in treated DIO mice. Insulin tolerance test (ITT) was performed after 2 weeks of vehicle (n=31) or ACY775 (n=21) treatment of DIO mice. Serum insulin (ng/ml) levels were measured after 3 weeks of vehicle (n=22) or ACY775 (n=21) in treated DIO mice. A homeostatic model assessment of insulin resistance (HOMA-IR) was analyzed after 3 weeks of vehicle (n=14) or ACY775 (n=13) treated DIO mice.
Food intake was analyzed hourly until 3:00 am. […] DEXA scans were performed in two different cohorts.
DIO mice then were treated with ricolinostat (50 mg/kg, i.p.) for 3 weeks. Daily body weight (g), daily food intake (g), serum leptin (ng/ml) levels after 3 weeks of vehicle (n-8) or ricolinostat (n=8) treatment, lean mass (g); fat mass and fat percentage (%) after 3 weeks of vehicle (n=16) or ricolinostat (n=17) treatment measured by DEXA scan were determined.
Blood glucose (mg/dl) levels were measured after 1 week of vehicle (n=16) or ricolinostat (n=16) treated DIO mice. GTT after 1 week of vehicle (n=17) or ricolinostat (n=16) treatment of DIO mice was assessed. AOC analysis for GTT was performed. ITT after 2 weeks of vehicle (n=17) or ricolinostat (n=16) treated DIO mice was measured. Serum insulin (ng/ml) levels after 3 weeks of vehicle (n=8) or ricolinostat (n=8) treatment were measured in DIO mice. Liver sections from 3 weeks of vehicle or ricolinostat treated DIO mice were stained by H&E.
DIO mice then were treated with bavarostat (10 mg/kg, i.p.) for 3 weeks and daily body weight (g) of DIO mice treated with Veh (n=9) or bavarostat (n=9) measured during the three weeks of treatment period. Daily food intake (g) during 3 weeks of Veh or bavarostat treatment was also measured.
ACY1083 was administered to DIO mice as described in Example 3.

[3] = test system: HDAC6-KO DIO mice; experiment: Chronic treatment of DIO WT versus HDAC6 KO mice; type: in vivo; conditions: for blood glucose, serum insulin and leptin levels, WT versus HDAC6 KO / fat mass and fat %, WT versus HDAC6 KO / food intake, WT versus HDAC6 KO / glucose tolerance and insulin sensitivity (GTT, ITT), WT versus HDAC6 KO / lean mass, WT versus HDAC6 KO / body weight, WT versus HDAC6 KO: DIO mice; for body weight, WT versus HDAC6 KO: 3 weeks, ACY775 10, ACY738 50, Tubastatin A 25 mg/kg/day i.p.
[4] = test system: DIO mice; experiment: CLAMS metabolic cages in DIO mice; type: in vivo; conditions: for energy expenditure: 3 days, ACY775 10 mg/kg, ACY738 50 mg/kg i.p.
Protocol: Diet induced obese (DIO) mice were placed into metabolic cages and received ACY775 (10 mg/kg, i.p., n=7) or vehicle (n=8) once a day for 3 days. Energy expenditure, respiratory exchange ratios (RER; VCO2/VO2), ambulatory count (physical activity) from each group of mice were determined. Bar graphs represent average of two dark (8-20 and 32-44 hr) and two light cycles ([…]).
Comprehensive Lab Animal Monitoring System (CLAMS) was used to measure metabolic parameters such as energy expenditure (EE) and respiratory exchange ratio (RER) and physical activity levels in Vehicle- and ACY775-treated mice.

[5] = test system: DIO mice; experiment: Acute leptin co-treatment in DIO mice (body weight, food intake 15 h); type: in vivo; conditions: for body weight, leptin after pre-treatment with inhibitor: 3 days pre-treatment
Protocol: DIO mice were pretreated with ACY775 (10 mg/kg/day, i.p.) or vehicle for 3 days, which was followed by co-treatment with ACY775 (or vehicle) and leptin (1 mg/kg, i.p.) (or saline) (n=9 for each group), % change in body weight 15 h after leptin treatment, food intake (g) during the 15 h period after leptin treatment. The results in were reproduced in two independent experiments.
Diet induced obese (DIO) mice were pretreated with ACY775 (10 mg/kg/day, i.p.) or vehicle for 3 days, which was followed by co-treatment with ACY775 (or vehicle) and leptin (1 mg/kg, i.p.) (or saline) (n=9 for each group). Mice were evaluated for % change in body weight 15 h after leptin treatment, and food intake (g) during the 15 h period after leptin treatment.
DIO mice were pretreated with ricolinostat (25 mg/kg/day, i.p.) or vehicle for 3 days, which was followed by co-treatment with ricolinostat (or vehicle) and leptin (1 mg/kg, i.p.) (or saline) (n=32 for each group). Change in body weight 15 h after leptin treatment, and food intake (g) during the 15 h period after leptin treatment were determined. The results were reproduced in two independent experiments.

[6] = leptin 1 mg/kg i.p., 15 h period

Compound	tubulin acetylation (HDAC6 inhibitor activity in cells) [1]	hepatic steatosis (H&E liver) ([2]; DIO mice)	food intake ([2]; DIO mice)	glucose tolerance test (GTT) ([2]; DIO mice)	HOMA-IR insulin resistance ([2]; DIO mice)	serum insulin levels ([2]; DIO mice)	serum leptin levels ([2]; DIO mice)	food intake and total body fat mass (summary) [2]	blood glucose, serum insulin and leptin levels, WT versus HDAC6 KO [3]	fat mass and fat %, WT versus HDAC6 KO [3]	food intake, WT versus HDAC6 KO [3]	glucose tolerance and insulin sensitivity (GTT, ITT), WT versus HDAC6 KO [3]	lean mass, WT versus HDAC6 KO [3]	body weight, WT versus HDAC6 KO [3]	energy expenditure [4]	body weight, leptin after pre-treatment with inhibitor ([5]; leptin 1 mg/kg i.p., 15 h)	food intake, leptin together with inhibitor [5, 6]	further results
O=C(NO)c1cnc(NC2(c3ccccc3)CC2)nc1 [ACY738]	inhibits the HDAC6 activity	improved hepatic steatosis	severely reduced	significant improvement of glucose homeostasis	ameliorated insulin resistance	reduced insulin levels	significantly decreased	significant reduction of food intake and total body fat mass	all significantly higher in the ACY738-treated HDAC6 KO group	significantly lower in the wt group compared to the HDAC6 KO group	significantly higher in the HDAC6 KO group	did not improve glucose tolerance and increase insulin sensitivity in the HDAC6 KO mice	not different	major difference	higher energy expenditure in light cycle, though without significant difference in dark cycle	significantly augmented the acute leptin-induced reduction in body weight and food intake	significantly augmented the acute leptin-induced reduction in body weight and food intake	insulin tolerance test (ITT) ([2]; DIO mice): improved insulin tolerance; body weight in HDAC6 KO mice ([3]; DIO HDAC6 KO mice): slight decrease
O=C(NO)c1cnc(NC2(c3cccc(F)c3)CCCCC2)nc1 [ACY775, 2-[[1-(3-fluorophenyl)cyclohexyl]amino]-N-hydroxy-5-pyrimidinecarboxamide]	increases tubulin acetylation	almost completely abolished hepatic steatosis	highly significant reduction	significantly improved glucose tolerance	significantly reduced the insulin resistance	significantly reduced the circulating insulin levels	significantly downregulated	significant reduction of food intake and total body fat mass	all significantly higher in the ACY775-treated HDAC6 KO group	significantly lower in the wt group compared to the HDAC6 KO group	blocked in the HDAC6 KO mice	could not increase glucose tolerance and insulin sensitivity in the HDAC6 KO mice	not different	highly significant decrease in the bodyweight of the WT DIO mice when compared to HDAC6 KO DIO mice	higher in the both dark and light cycle	further reduction in bodyweight	further augmented the negative effect of leptin on food intake	daily food intake on treatment ([2]; DIO mice, ACY775 10 mg/kg, ACY738 50 mg/kg i.p.): 0.85 ± 0.06 g; physical activity level ([4]; dark and light cycles): not different; body weight, agent alone ([5]; 15 h, ACY775 10 mg/kg, ricolinostat 25 mg/kg, leptin 1 mg/kg i.p.): significantly decreased the bodyweight; food intake, agent alone ([5]; 15 h period): reduced the food intake
